# From patent US12577245B2, “Sulfonyl benzamide derivatives as Bcl-2 inhibitors” (ASCENTAGE PHARMA (SUZHOU) CO., LTD., priority 2021, dated 2026)
# Biological target: Bcl-2 G101V (Homo sapiens, UniProt P10415, G101V)
# Test: Bcl-2 G101V inhibition, fluorescence polarization (Flu-BIM tracer) binding assay
# Conditions: FP; 20 nM Bcl2, 5 nM Flu-BIM, 1 h incubation; read-out: Bcl-2 G101V (FP)
row,SMILES,IC50 [nM]
1,"CC(CO)c1ccc(-c2csc(C3=C(CN4CCN(c5ccc(C(=O)NS(=O)(=O)c6ccc(NC[C@H]7CC[C@](C)(O)CC7)c([N+](=O)[O-])c6)c(Oc6cnc7[nH]ccc7c6)c5)CC4)CCC(C)(C)C3)c2)c(F)c1 (stereo partly shown) [Example 72, 2-((1H-pyrrolo[2,3-b]pyridin-5-yl)oxy)-4-(4-((2-(4-(2-fluoro-4-(1-hydroxypropan-2-yl)phenyl)thiophen-2-yl)-4,4-dimethylcyclohex-1-en-1-yl)methyl)piperazin-1-yl)-N-((4-((((1r,4r)-4-hydroxy-4-methylcyclohexyl)methyl)amino)-3-nitrophenyl)sulfonyl)benzamide]",27
2,"CC1(C)CCC(CN2CCN(c3ccc(C(=O)NS(=O)(=O)c4ccc(NC[C@H]5COCCO5)c([N+](=O)[O-])c4)c(Oc4cnc5[nH]ccc5c4)c3)CC2)=C(c2cc(CN3CCC(N4CCOCC4)CC3)cs2)C1 [Example 28, (S)—N-((4-(((1,4-dioxan-2-yl)methyl)amino)-3-nitrophenyl)sulfonyl)-2-((1H-pyrrolo[2,3-b]pyridin-5-yl)oxy)-4-(4-((4,4-dimethyl-2-(4-((4-morpholinopiperidin-1-yl)methyl)thiophen-2-yl)cyclohex-1-en-1-yl)methyl)piperazin-1-yl)benzamide]",47
3,"CC(C)(O)Cc1ccc(-c2csc(C3=C(CN4CCN(c5ccc(C(=O)NS(=O)(=O)c6ccc(NC[C@H]7CC[C@](C)(O)CC7)c([N+](=O)[O-])c6)c(Oc6cnc7[nH]ccc7c6)c5)CC4)CCC(C)(C)C3)c2)c(F)c1 [Example 73, 2-((1H-pyrrolo[2,3-b]pyridin-5-yl)oxy)-4-(4-((2-(4-(2-fluoro-4-(2-hydroxy-2-methylpropyl)phenyl)thiophen-2-yl)-4,4-dimethylcyclohex-1-en-1-yl)methyl)piperazin-1-yl)-N-((4-((((1r,4r)-4-hydroxy-4-methylcyclohexyl)methyl)amino)-3-nitrophenyl)sulfonyl)benzamide]",25.2
4,"CC1(C)CCC(CN2CCN(c3ccc(C(=O)NS(=O)(=O)c4ccc(NC[C@H]5CC[C@](C)(O)CC5)c([N+](=O)[O-])c4)c(Oc4cnc5[nH]ccc5c4)c3)CC2)=C(c2cc(-c3ccc(C(C)(C)O)cc3)cs2)C1 [Example 59, 2-((1H-pyrrolo[2,3-b]pyridin-5-yl)oxy)-N-((4-((((1r,4r)-4-hydroxy-4-methylcyclohexyl)methyl)amino)-3-nitrophenyl)sulfonyl)-4-(4-((2-(4-(4-(2-hydroxypropan-2-yl)phenyl)thiophen-2-yl)-4,4-dimethylcyclohex-1-en-1-yl)methyl)piperazin-1-yl)benzamide]",38.5
5,"[2H]C([2H])([2H])C(O)(c1cc(F)c(-c2csc(C3=C(CN4CCN(c5ccc(C(=O)NS(=O)(=O)c6ccc(NC[C@H]7CC[C@](C)(O)CC7)c([N+](=O)[O-])c6)c(Oc6cnc7[nH]ccc7c6)c5)CC4)CCC(C)(C)C3)c2)c(F)c1)C([2H])([2H])[2H] [Example 68, 2-((1H-pyrrolo[2,3-b]pyridin-5-yl)oxy)-4-(4-((2-(4-(2,6-difluoro-4-(2-hydroxypropan-2-yl-1,1,1,3,3,3-d6)phenyl)thiophen-2-yl)-4,4-dimethylcyclohex-1-en-1-yl)methyl)piperazin-1-yl)-N-((4-((((1r,4r)-4-hydroxy-4-methylcyclohexyl)methyl)amino)-3-nitrophenyl)sulfonyl)benzamide]",27.8
6,"CC1(C)CCC(CN2CCN(c3ccc(C(=O)NS(=O)(=O)c4ccc(NC[C@H]5COCCO5)c([N+](=O)[O-])c4)c(Oc4cnc5[nH]ccc5c4)c3)CC2)=C(c2cc(NC(=O)c3ccccc3)cs2)C1 [Example 18, (S)—N-((4-(((1,4-dioxan-2-yl)methyl)amino)-3-nitrophenyl)sulfonyl)-2-((1H-pyrrolo[2,3-b]pyridin-5-yl)oxy)-4-(4-((2-(4-benzamidothiophen-2-yl)-4,4-dimethylcyclohex-1-en-1-yl)methyl)piperazin-1-yl)benzamide]",66.3
7,"CC(C)c1ccccc1-c1csc(C2=C(CN3CCN(c4ccc(C(=O)NS(=O)(=O)c5ccc(NC[C@H]6COCCO6)c([N+](=O)[O-])c5)c(Oc5cnc6[nH]ccc6c5)c4)CC3)CCC(C)(C)C2)c1 [Example 39, (S)—N-((4-(((1,4-dioxan-2-yl)methyl)amino)-3-nitrophenyl)sulfonyl)-2-((1H-pyrrolo[2,3-b]pyridin-5-yl)oxy)-4-(4-((2-(4-(2-isopropylphenyl)thiophen-2-yl)-4,4-dimethylcyclohex-1-en-1-yl)methyl)piperazin-1-yl)benzamide]",36
8,"CCC(O)(CC)c1cc(F)c(-c2csc(C3=C(CN4CCN(c5ccc(C(=O)NS(=O)(=O)c6ccc(NC[C@H]7CC[C@](C)(O)CC7)c([N+](=O)[O-])c6)c(Oc6cnc7[nH]ccc7c6)c5)CC4)CCC(C)(C)C3)c2)c(F)c1 [Example 67, 2-((1H-pyrrolo[2,3-b]pyridin-5-yl)oxy)-4-(4-((2-(4-(2,6-difluoro-4-(3-hydroxypentan-3-yl)phenyl)thiophen-2-yl)-4,4-dimethylcyclohex-1-en-1-yl)methyl)piperazin-1-yl)-N-((4-((((1r,4r)-4-hydroxy-4-methylcyclohexyl)methyl)amino)-3-nitrophenyl)sulfonyl)benzamide]",33.7
9,"CC1(C)CCC(CN2CCN(c3ccc(C(=O)NS(=O)(=O)c4ccc(NC[C@H]5CC[C@](C)(O)CC5)c([N+](=O)[O-])c4)c(Oc4cnc5[nH]ccc5c4)c3)CC2)=C(c2cc(-c3cccc(C(C)(C)O)c3)cs2)C1 [Example 70, 2-((1H-pyrrolo[2,3-b]pyridin-5-yl)oxy)-N-((4-((((1r,4r)-4-hydroxy-4-methylcyclohexyl)methyl)amino)-3-nitrophenyl)sulfonyl)-4-(4-((2-(4-(3-(2-hydroxypropan-2-yl)phenyl)thiophen-2-yl)-4,4-dimethylcyclohex-1-en-1-yl)methyl)piperazin-1-yl)benzamide]",36.9
10,"CC1(C)CCC(CN2CCN(c3ccc(C(=O)NS(=O)(=O)c4ccc(NC[C@H]5COCCO5)c([N+](=O)[O-])c4)c(Oc4cnc5[nH]ccc5c4)c3)CC2)=C(c2cc3c(s2)CCN(c2ccc(F)cc2)C3)C1 [Example 15, (S)—N-((4-(((1,4-dioxan-2-yl)methyl)amino)-3-nitrophenyl)sulfonyl)-2-((1H-pyrrolo[2,3-b]pyridin-5-yl)oxy)-4-(4-((2-(5-(4-fluorophenyl)-4,5,6,7-tetrahydrothieno[3,2-c]pyridin-2-yl)-4,4-dimethylcyclohex-1-en-1-yl)methyl)piperazin-1-yl)benzamide]",65.1
11,"CC1(C)CCC(CN2CCN(c3ccc(C(=O)NS(=O)(=O)c4ccc(NCC5CCOCC5)c([N+](=O)[O-])c4)c(Oc4cnc5[nH]ccc5c4)c3)CC2)=C(c2cc(-c3ccccc3)cs2)C1 [Example 34, 2-((1H-pyrrolo[2,3-b]pyridin-5-yl)oxy)-4-(4-((4,4-dimethyl-2-(4-phenylthiophen-2-yl)cyclohex-1-en-1-yl)methyl)piperazin-1-yl)-N-((3-nitro-4-(((tetrahydro-2H-pyran-4-yl)methyl)amino)phenyl)sulfonyl)benzamide]",47.9
12,"CC1(C)CCC(CN2CCN(c3ccc(C(=O)NS(=O)(=O)c4ccc(NC[C@H]5CC[C@](C)(O)CC5)c([N+](=O)[O-])c4)c(Oc4cnc5[nH]ccc5c4)c3)CC2)=C(c2cc(-c3c(F)cc(C(C)(C)C(=O)O)cc3F)cs2)C1 [Example 82, 2-(4-(5-(2-((4-(3-((1H-pyrrolo[2,3-b]pyridin-5-yl)oxy)-4-(((4-((((1r,4r)-4-hydroxy-4-methylcyclohexyl)methyl)amino)-3-nitrophenyl)sulfonyl)carbamoyl)phenyl)piperazin-1-yl)methyl)-5,5-dimethylcyclohex-1-en-1-yl)thiophen-3-yl)-3,5-difluorophenyl)-2-methylpropanoic acid]",22.3
13,"CC1(C)CCC(CN2CCN(c3ccc(C(=O)NS(=O)(=O)c4ccc(NC[C@H]5COCCO5)c([N+](=O)[O-])c4)c(Oc4cnc5[nH]ccc5c4)c3)CC2)=C(c2cc(CN3CCC(F)(F)CC3)cs2)C1 [Example 32, (S)—N-((4-(((1,4-dioxan-2-yl)methyl)amino)-3-nitrophenyl)sulfonyl)-2-((1H-pyrrolo[2,3-b]pyridin-5-yl)oxy)-4-(4-((2-(4-((4,4-difluoropiperidin-1-yl)methyl)thiophen-2-yl)-4,4-dimethylcyclohex-1-en-1-yl)methyl)piperazin-1-yl)benzamide]",25.7
14,"CC1(C)CCC(CN2CCN(c3ccc(C(=O)NS(=O)(=O)c4ccc(NC[C@H]5CC[C@](C)(O)CC5)c([N+](=O)[O-])c4)c(Oc4cnc5[nH]ccc5c4)c3)CC2)=C(c2cc(-c3ccc(C(C)(C)O)cc3F)cs2)C1 [Example 62, 2-((1H-pyrrolo[2,3-b]pyridin-5-yl)oxy)-4-(4-((2-(4-(2-fluoro-4-(2-hydroxypropan-2-yl)phenyl)thiophen-2-yl)-4,4-dimethylcyclohex-1-en-1-yl)methyl)piperazin-1-yl)-N-((4-((((1r,4r)-4-hydroxy-4-methylcyclohexyl)methyl)amino)-3-nitrophenyl)sulfonyl)benzamide]",23.7
15,"CC1(C)CCC(CN2CCN(c3ccc(C(=O)NS(=O)(=O)c4ccc(NC[C@H]5CC[C@@](C)(O)CC5)c([N+](=O)[O-])c4)c(Oc4cnc5[nH]ccc5c4)c3)CC2)=C(c2cc(-c3ccc(F)cc3)cs2)C1 [Example 36, 2-((1H-pyrrolo[2,3-b]pyridin-5-yl)oxy)-4-(4-((2-(4-(4-fluorophenyl)thiophen-2-yl)-4,4-dimethylcyclohex-1-en-1-yl)methyl)piperazin-1-yl)-N-((4-((((1s,4s)-4-hydroxy-4-methylcyclohexyl)methyl)amino)-3-nitrophenyl)sulfonyl)benzamide]",46.2
16,"CN(C)c1ccccc1-c1csc(C2=C(CN3CCN(c4ccc(C(=O)NS(=O)(=O)c5ccc(NC[C@H]6COCCO6)c([N+](=O)[O-])c5)c(Oc5cnc6[nH]ccc6c5)c4)CC3)CCC(C)(C)C2)c1 [Example 58, (S)—N-((4-(((1,4-dioxan-2-yl)methyl)amino)-3-nitrophenyl)sulfonyl)-2-((1H-pyrrolo[2,3-b]pyridin-5-yl)oxy)-4-(4-((2-(4-(2-(dimethylamino)phenyl)thiophen-2-yl)-4,4-dimethylcyclohex-1-en-1-yl)methyl)piperazin-1-yl)benzamide]",34.1
